Measured values from ChEMBL document CHEMBL1147445, “Antagonists of human CCR5 receptor containing 4-(pyrazolyl)piperidine side chains. Part 2: Discovery of potent, selective, and orally bioavailable compounds” (Bioorg Med Chem Lett, 2004).

Key:
[1] = molecular target: T1, C-C chemokine receptor type 5 (Homo sapiens, UniProt P51681); experiment: Displacement of [125I]-MIP-1 alpha from human […] chemokine receptor 5 expressed in CHO cells; format: cell-based
Rattus norvegicus [2] = experiment: Area under curve in rat after p.o. administration; details: in vivo, po
[3] = Inhibition of HIV-1 infectivity using peripheral bloodmonon uclear cells against the BAL-1 strain in the presence of 50% normal human serum (NHS); format: functional
in vivo [4] = details: rat
[5] = Oral bioavailability in rat; details: in vivo
[6] = Clearance rat (dosed at 0.5 mpk IV and 2.0 mpk po.); format: ADME, organism-based; details: plasma, 0.5 mg/kg, read-out: Clp
[7] = Inhibition of HIV-1 infectivity using peripheral bloodmonon uclear cells against the BAL-1 strain; format: functional; details: Homo sapiens
HeLa = experiment: In vitro antiviral activity against HIV-1 infected HeLa cells; format: functional; details: Homo sapiens
in vivo [8] = details: rat, plasma
Rattus norvegicus [9] = experiment: Volumes of distribution in rat after po administration; details: in vivo
[10] = molecular target: T1, C-C chemokine receptor type 5; experiment: Inhibitory concentration of compound to displace GP120 from […] chemokine receptor 5
Canis familiaris = experiment: Oral AUCN in dog (dosed at 2.0 mpk po ); details: in vivo, 2.0 mg/kg
[11] = Plasma clearance in dog (dosed at 0.5 mpk iv and 2.0 mpk orally); format: ADME, organism-based, Canis lupus familiaris; details: 0.5 mg/kg, read-out: Clp
[12] = Half life in dog (dosed at 0.5 mpk iv and 2.0 mpk orally); format: ADME, organism-based, Canis lupus familiaris; details: in vivo
[13] = Oral bioavailability in dog (dose 0.5 mg/kg i.v. and 2.0 mg/kg p.o.); format: ADME, organism-based, Canis lupus familiaris; details: in vivo
[14] = Plasma clearance in monkey (dosed at 0.5 mpk iv and 2.0 mpk orally); format: ADME, organism-based; details: cercopithecidae, 0.5 mg/kg, read-out: Clp
[15] = Oral bioavailability in monkey (dosed at 0.5 mpk iv and 2.0 mpk orally); format: ADME, organism-based; details: cercopithecidae, in vivo, 2 mg/kg
[16] = Half life in monkey (dosed at 0.5 mpk iv and 2.0 mpk orally); format: ADME, organism-based; details: cercopithecidae, in vivo
[17] = Oral AUCN in monkey (dosed at 0.5 mpk iv ); format: ADME, organism-based; details: cercopithecidae, in vivo, 0.5 mg/kg
[18] = molecular target: T1, C-C chemokine receptor type 5; experiment: Inhibitory concentration of compound to displace GP120 from […] chemokine receptor 5; remark: listed apart in the source
Rattus norvegicus [19] = experiment: Area under curve in rat after peroral administration; format: ADME, organism-based; details: in vivo, po

T1 sequence (P51681 whole entry): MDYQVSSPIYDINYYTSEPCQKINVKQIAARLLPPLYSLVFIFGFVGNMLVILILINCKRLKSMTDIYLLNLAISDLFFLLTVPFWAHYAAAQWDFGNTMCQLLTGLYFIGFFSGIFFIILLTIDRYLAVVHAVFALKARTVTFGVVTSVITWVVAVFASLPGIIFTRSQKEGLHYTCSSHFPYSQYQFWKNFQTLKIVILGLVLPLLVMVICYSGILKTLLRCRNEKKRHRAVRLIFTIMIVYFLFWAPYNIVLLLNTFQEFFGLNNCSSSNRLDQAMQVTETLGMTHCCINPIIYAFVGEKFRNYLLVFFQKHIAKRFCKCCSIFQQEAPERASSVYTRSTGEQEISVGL

| Compound | IC50 [1] [nM] | AUC N (Rattus norvegicus [2]) [uM hr dose-1] | IC95 [3] [nM] | half-life (in vivo [4]) [min] | bioavailability [5] [%] | IC95 [7] [nM] | IC90 (HeLa) [nM] | clearance (in vivo [8]) [mL/min/kg] | other results |
| --- | --- | --- | --- | --- | --- | --- | --- | --- | --- |
| CCn1nc(Cc2ccccc2)cc1C1CCN(C[C@H]2CN([C@H](CC3CC3)C(=O)O)C[C@@H]2c2cccc(F)c2)CC1 | 1.2 | 0.03 | 31 | 15 | 8.1 | < 8 | 0.4 |  | clearance [6]: 81 mL/min/kg |
| CC[C@H](C)[C@H](C(=O)O)N1C[C@H](CN2CCC(c3cc(Cc4ccccc4)nn3CC)CC2)[C@@H](c2cccc(F)c2)C1 | 0.9 |  |  |  |  |  | 0.4 |  |  |
| CCn1nc(Cc2ccccc2)cc1C1CCN(C[C@H]2CN([C@](C)(C(=O)O)C(C)C)C[C@@H]2c2cccc(F)c2)CC1 | 5.5 | 0.62 |  | 44.4 | 21 |  | > 300 | 10 | Vdss (Rattus norvegicus [9]): 0.43 L/kg |
| CCn1nc(Cc2ccccc2)cc1C1CCN(C[C@H]2CN([C@H](CC(C)C)C(=O)O)C[C@@H]2c2ccccc2)CC1 |  | 0.13 | 125 | 72 | 17 | < 8 | 3.7 | 43 | IC50 [10]: 2.9 nM; Vdss (Rattus norvegicus [9]): 2.1 L/kg |
| CCn1nc(Cc2ccccc2)cc1C1CCN(C[C@H]2CN([C@@H](C(=O)O)C(C)(C)C)C[C@@H]2c2cccc(F)c2)CC1 | 0.8 | 3.7 |  | 47.4 | 71 |  | < 0.14 | 5.7 | AUC N (Canis familiaris): 1 uM hr dose-1; clearance [11]: 13 mL/min/kg; half-life [12]: 38.4 min; bioavailability [13]: 44% |
| CCn1nc(Cc2ccccc2)cc1C1CCN(C[C@H]2CN([C@@H](C(=O)O)C(C)C)C[C@@H]2c2cccc(F)c2)CC1 | 1.5 | 1.1 | 350 | 84 | 11 | 22 | 3.7 | 3.2 | AUC N (Canis familiaris): 1.9 uM hr dose-1; clearance [14]: 20 mL/min/kg; clearance [11]: 3.5 mL/min/kg; bioavailability [15]: 4.7%; half-life [16]: 78 min; AUC N [17]: 0.08 uM hr dose-1; half-life [12]: 204 min; bioavailability [13]: 20% |
| CCC(CC)[C@H](C(=O)O)N1C[C@H](CN2CCC(c3cc(Cc4ccccc4)nn3CC)CC2)[C@@H](c2cccc(F)c2)C1 | 0.9 | 0.8 |  | 35.4 | 52 |  | 0.4 | 19 |  |
| CCn1nc(Cc2ccccc2)cc1C1CCN(C[C@H]2CN([C@@](C)(C(=O)O)C(C)C)C[C@@H]2c2cccc(F)c2)CC1 | 1.6 |  |  |  |  |  | 300 |  |  |
| CCn1nc(Cc2ccccc2)cc1C1CCN(C[C@H]2CN([C@@H](C(=O)O)C3CCCCC3)C[C@@H]2c2cccc(F)c2)CC1 | 1.6 |  |  |  |  |  | 0.4 |  |  |
| CCn1nc(Cc2ccccc2)cc1C1CCN(C[C@H]2CN([C@@H](C(=O)O)C(C)C)C[C@@H]2c2ccccc2)CC1 |  | 0.45 |  | 336 | 17 |  | 11 |  | IC50 [10]: 2.8 nM; clearance [6]: 12.6 mL/min/kg |
| CC[C@@H](C)[C@H](C(=O)O)N1C[C@H](CN2CCC(c3cc(Cc4ccccc4)nn3CC)CC2)[C@@H](c2cccc(F)c2)C1 | 0.8 | 0.16 |  | 32.4 | 13 |  | < 0.14 | 25 |  |
| CCn1nc(Cc2ccccc2)cc1C1CCN(C[C@H]2CN([C@@H](C(=O)O)C3CCCCC3)C[C@@H]2c2ccccc2)CC1 |  |  | < 8 |  |  | < 8 | 0.4 |  | IC50 [18]: 2 nM; AUC N (Rattus norvegicus [19]): 0.02 uM hr dose-1 |
| CCn1nc(Cc2ccccc2)cc1C1CCN(C[C@H]2CN([C@@H](C(=O)O)C3CCC3)C[C@@H]2c2ccccc2)CC1 | 1.6 | 0.06 |  | 60 | 11 |  | 3.7 |  | clearance [6]: 60 mL/min/kg |
| CCn1nc(Cc2ccccc2)cc1C1CCN(C[C@H]2CN([C@H](CC3CCC3)C(=O)O)C[C@@H]2c2cccc(F)c2)CC1 | 1.2 | 0.05 | 35 | 42.6 | 7.3 | < 0.8 | 0.4 |  | clearance [6]: 46 mL/min/kg |
